The source made the active and inactive calls. The rule behind the calls is not given here.
How the values were obtained:
HUVEC [1] = assay: Antiinvasive activity in HUVEC cells assessed as decrease in cell invasion at 5 to 20 nM measured after 48 hrs by transwell assay; assay type: functional, cell-based; settings: Homo sapiens, dose 5-20 nM
MGC-803 [2] = assay: Induction of apoptosis in human MGC-803 cells assessed as late apoptotic cells at 15 nM measured after 48 hrs by Annexin V-APC/PI double staining based flow cytometry assay (reference value: 1.05 %); assay type: functional, cell-based
HUVEC [3] = assay: Inhibition of cell migration in HUVEC cells assessed as decrease in number of migrated endothelial cells at 5 to 20 nM measured after 48 hrs by transwell analysis; assay type: functional, cell-based; settings: Homo sapiens, dose 5-20 nM
MGC-803 [4] = assay: Induction of apoptosis in human MGC-803 cells assessed as early apoptotic cells at 30 nM measured after 48 hrs by Annexin V-APC/PI double staining based flow cytometry assay (reference value: 1.31 %); assay type: functional, cell-based
MGC-803 [5] = assay: Induction of cell cycle arrest in human MGC-803 cells assessed as accumulation at G1 phase at 7.5 nM incubated for 24 hrs by propidium iodide staining based flow cytometry (reference value: 45.67 %); assay type: functional
MGC-803 [6] = assay: Induction of apoptosis in human MGC-803 cells assessed as viable cells at 7.5 nM measured after 48 hrs by Annexin V-APC/PI double staining based flow cytometry assay (reference value: 97.1 %); assay type: functional, cell-based
MGC-803 [7] = assay: Induction of mitochondrial membrane potential loss in human MGC-803 cells after 48 hrs by JC-1 staining based flow cytometric analysis; assay type: functional, cell-based; settings: dose 7.5-30 nM
MGC-803 [8] = assay: Antiproliferative activity against human MGC-803 cells assessed as cell growth inhibition after 72 hrs by SRB assay; assay type: functional, cell-based; settings: MGC-803, 72 h
MGC-803 [9] = assay: Induction of cell cycle arrest in human MGC-803 cells assessed as accumulation at G1 phase at 30 nM incubated for 24 hrs by propidium iodide staining based flow cytometry (reference value: 45.67 %); assay type: functional
MGC-803 [10] = assay: Induction of cell cycle arrest in human MGC-803 cells assessed as accumulation at S phase at 7.5 nM incubated for 24 hrs by propidium iodide staining based flow cytometry (reference value: 17.3 %); assay type: functional
MGC-803 [11] = assay: Induction of cell cycle arrest in human MGC-803 cells assessed as accumulation at S phase at 15 nM incubated for 24 hrs by propidium iodide staining based flow cytometry (reference value: 17.3 %); assay type: functional
MGC-803 [12] = assay: Induction of mitochondrial membrane potential loss in human MGC-803 cells at 15 nM after 48 hrs by JC-1 staining based flow cytometric analysis (reference value: 86 %); assay type: functional
Tubulin (Homo sapiens) [13] = target: T1, Tubulin (Homo sapiens) (UniProt P68371+Q9H4B7+P0DPH7+P68366+Q13509+Q71U36+P04350+Q3ZCM7+P07437+P68363+Q9BQE3+Q6PEY2+Q13885+Q9BVA1+Q9BUF5); assay: Inhibition of tubulin polymerization in human MGC-803 cells assessed as change in shape of nucleus at 2 to 7.5 nM measured after 48 hrs by Hoechst staining based confocal microscopy analysis; assay type: cell-based; settings: dose 2-7.5 nM
MGC-803 [14] = assay: Induction of apoptosis in human MGC-803 cells assessed as late apoptotic cells at 7.5 nM measured after 48 hrs by Annexin V-APC/PI double staining based flow cytometry assay (reference value: 1.05 %); assay type: functional, cell-based
Tubulin (Homo sapiens) [15] = target: T1, Tubulin (Homo sapiens); assay: Inhibition of tubulin polymerization in human MGC-803 cells; assay type: cell-based
Tubulin (Homo sapiens) [16] = target: T1, Tubulin (Homo sapiens); assay: Inhibition of tubulin polymerization in human MGC-803 cells assessed as blockage of spindle formation at 30 nM measured after 48 hrs by Hoechst staining based confocal microscopy analysis; assay type: cell-based
MGC-803 [17] = assay: Induction of apoptosis in human MGC-803 cells assessed as increase in cleaved Caspase-9 expression incubated for 24 hrs by Western blot analysis; assay type: functional, cell-based; settings: dose 7.5-30 nM
MGC-803 [18] = assay: Induction of apoptosis in human MGC-803 cells assessed as increase in cleaved PARP expression incubated for 24 hrs by Western blot analysis; assay type: functional, cell-based
MGC-803 [19] = assay: Induction of apoptosis in human MGC-803 cells assessed as increase in PARP expression incubated for 24 hrs by Western blot analysis; assay type: functional, cell-based; settings: dose 7.5-30 nM
MGC-803 [20] = assay: Induction of apoptosis in human MGC-803 cells assessed as necrotic cells at 7.5 nM measured after 48 hrs by Annexin V-APC/PI double staining based flow cytometry assay (reference value: 0.57 %); assay type: functional, cell-based
MGC-803 [21] = assay: Antitumor activity against CMTPX- labeled human MGC-803 cells xenografted in zebrafish assessed as inhibition of tumor metastasis measured after 72 hrs by fluorescence microscopic analysis; assay type: functional, cell-based; settings: dose 25-100 nM
MGC-803 [22] = assay: Induction of cell cycle arrest in human MGC-803 cells assessed as accumulation at G2/M phase at 15 nM incubated for 24 hrs by propidium iodide staining based flow cytometry (reference value: 37.03 %); assay type: functional
MGC-803 [23] = assay: Induction of cell cycle arrest in human MGC-803 cells assessed as accumulation at G1 phase at 15 nM incubated for 24 hrs by propidium iodide staining based flow cytometry (reference value: 45.67 %); assay type: functional
HepG2 = assay: Antiproliferative activity against human HepG2 cells assessed as cell growth inhibition after 72 hrs by SRB assay; assay type: functional, cell-based; settings: HepG2, 72 h

Q: With `COc1ccc(/C=C\c2cc(OC)c(OC)c(OC)c2)cc1/C=C/C(=O)Nc1ccccc1N` as the compound, how does the inhibition (HUVEC [1]) read?
A: Active

Q: What about the Activity (MGC-803 [2]) of the same compound?
A: Active

Q: And the inhibition (HUVEC [3])?
A: Active

Q: What about the Activity (MGC-803 [4]) of the same compound?
A: Active

Q: And the Activity (MGC-803 [5])?
A: 43.58%

Q: And the Activity (MGC-803 [6])?
A: Active

Q: What about the Activity (MGC-803 [7]) of the same compound?
A: Dose-Dependent Effect

Q: And the IC50 (MGC-803 [8])?
A: 16 nM

Q: What about the Activity (MGC-803 [9]) of the same compound?
A: 2.21%

Q: And the Activity (MGC-803 [10])?
A: 12.6%

Q: And the Activity (MGC-803 [11])?
A: 12.7%

Q: And the Activity (MGC-803 [12])?
A: 63.6%

Q: And the inhibition (Tubulin (Homo sapiens) [13])?
A: Active

Q: What about the Activity (MGC-803 [14]) of the same compound?
A: Active

Q: What about the inhibition (Tubulin (Homo sapiens) [15]) of the same compound?
A: Active

Q: What about the inhibition (Tubulin (Homo sapiens) [16]) of the same compound?
A: Active

Q: What about the Activity (MGC-803 [17]) of the same compound?
A: Dose-Dependent Effect

Q: What about the Activity (MGC-803 [18]) of the same compound?
A: Dose-Dependent Effect

Q: What about the Activity (MGC-803 [19]) of the same compound?
A: Dose-Dependent Effect

Q: What about the Activity (MGC-803 [20]) of the same compound?
A: Active

Q: And the inhibition (MGC-803 [21])?
A: Dose-Dependent Effect

Q: And the Activity (MGC-803 [22])?
A: Dose-Dependent Effect

Q: And the Activity (MGC-803 [22]; record 2)?
A: 48.16%

Q: What about the Activity (MGC-803 [23]) of the same compound?
A: 39.14%

Q: And the IC50 (HepG2)?
A: 26 nM
